We go through 13 compounds from PMC9053583, “A novel series of phenolic temozolomide (TMZ) esters with 4 to 5-fold increased potency, compared to TMZ, against glioma cells irrespective of MGMT expression” (RSC Advances, 2020).

A short description of data set [1]: Solubility in cell culture medium. Type of data set: physicochemical. The procedure:
The maximum concentration that could be achieved in medium for amide analogues 4a and 4c was approximately 200 μM, at which IC50 values could not be generated and were also eliminated from further studies.
(§1) Cells were seeded in the appropriate media in each well of a Costar 96-well plate at a density of 5 × 10^2 immortalised cells; 2 × 10^3 (primary cells). The plates were incubated at 37 °C and 5% CO2 in a humidified incubator for 24 hours to allow cells to adhere. Each of the drugs tested were dissolved in DMSO to afford a 200 mM stock solution. The stock solutions were diluted with medium to afford the final working concentrations, ensuring DMSO concentration was no greater than 0.5% (v/v). Drug concentrations were added to the cells and incubated for 144 hours. After incubation, the drug concentrations were removed and replaced with 100 μL of CellTiter-Glo® and 100 μL of media. The luminescence of each well was measured on GENios Pro plate reader. The results for each of the drug concentrations were expressed as a percentage of the control wells. For cell lines, the regression equation for a polynomial line of best fit of order 2 was used to calculate the IC50. In the case of the in vitro model used in the present study, the IC50 was defined as the concentration of drug that results in a 50% reduction in oxyluciferin production. Primary culture cells were incubated with clinically relevant concentrations for 144 hours. Viability was expressed as a percentage of the control wells. Each experiment involving cell lines was carried out in triplicate of triplicates. Experiments using patient derived primary cultures were carried out in triplicate.

For another data set, the system named is U87-MG cells. Put plainly: CellTiter-Glo cytotoxicity against U87-MG cells. Type of data set: cell-based. Particulars: Homo sapiens, U-87 MG; initial screening, 144 hours incubation, CellTiter-Glo, IC50 ± SD (n = 3); read-out: IC50 against U87-MG cells. The procedure:
Apoptosis of glioma cells induced by TMZ, occurs at least 120 hours after treatment.[7] Consequently, cells were incubated for 144 hours with specified TMZ analogues in the in vitro investigations in order to obtain more reliable IC50 values.
1321-N1 (human astrocytoma) was maintained in DMEM medium supplemented with 2 mM L-glutamine and 10% FBS. GOS-3, (human brain mixed astro-oligodendroglioma) was maintained in DMEM medium supplemented with 2 mM L-glutamine and 10% […]. U87-MG, (human glioblastoma) and SVGp12 (normal human astroglia) were maintained in EMEM medium supplemented with 2 mM L-glutamine, 1 mM sodium pyruvate and 10% FBS. All cell lines were incubated at 37 °C and 5% CO2 in a humidified incubator. Primary BTNW cultures were maintained in Ham's F10 nutrient mixture, containing 20 mM HEPES, 2 mM glutamine and 10% FBS. Primary cultures were incubated in a humidified incubator at 37 °C.
as §1
Initial screening of the 25 analogues was completed using the U87-MG cell line. The most promising analogues from the initial screening were taken forward and tested against the 1321-N1, GOS-3 and SVG-p12 cell lines. The results of all 4 cell lines were compiled and the analogues that were deemed to be the most promising drug candidates were tested against primary cultures at clinically relevant concentrations.
On the technique in general: In ATP-based viability assays light output follows the ATP content of the culture.

`COc1ccc(CNC(=O)c2ncn3c(=O)n(C)nnc23)cc1` [Analogue 4i, N-(4-Methoxybenzyl)-3-methyl-4-oxo-3,4-dihydroimidazo[5,1-d][1,2,3,5]tetrazine-8-carboxamide] gave a melting point of 193 °C. Moreover, in data set [1], the “solubility in cell culture medium” value is recorded as “insoluble”.
`Cc1ccc(CNC(=O)c2ncn3c(=O)n(C)nnc23)cc1` [Analogue 4j, 3-Methyl-N-(4-methylbenzyl)-4-oxo-3,4-dihydroimidazo[5,1-d][1,2,3,5]tetrazine-8-carboxamide] gave a melting point of 152 °C. In the data set on U87-MG cells, the IC50 stood at 139 ± 28 µM.
In turn, `Cn1nnc2c(C(=O)OCCc3ccc([N+](=O)[O-])cc3)ncn2c1=O` [Analogue 3d, 4-Nitrophenethyl 3-methyl-4-oxo-3,4-dihydroimidazo[5,1-d][1,2,3,5]tetrazine-8-carboxylate] displayed a melting point of 187 °C. In addition, the “solubility in cell culture medium” value in data set [1] is “insoluble”.
`COc1ccc(CCOC(=O)c2ncn3c(=O)n(C)nnc23)cc1` [Analogue 3e, 4-Methoxyphenethyl 3-methyl-4-oxo-3,4-dihydroimidazo[5,1-d][1,2,3,5]tetrazine-8-carboxylate] displayed a melting point of 164 °C. Moreover, the “solubility in cell culture medium” value in data set [1] is listed as “insoluble”.
The corresponding values for `Cc1ccc(NC(=O)c2ncn3c(=O)n(C)nnc23)cc1` [Analogue 4g, 3-Methyl-4-oxo-N-(p-tolyl)-3,4-dihydroimidazo[5,1-d][1,2,3,5]tetrazine-8-carboxamide] are 209 °C and “insoluble”.
Consider `COc1ccc(NC(=O)c2ncn3c(=O)n(C)nnc23)cc1` [Analogue 4d, N-(4-Methoxyphenyl)-3-methyl-4-oxo-3,4-dihydroimidazo[5,1-d][1,2,3,5]tetrazine-8-carboxamide], for which the melting point came to 192 °C. Further, the “solubility in cell culture medium” value in data set [1] is reported as “insoluble”.
On to `COc1ccc(COC(=O)c2ncn3c(=O)n(C)nnc23)cc1` [Analogue 3f, 4-Methoxybenzyl 3-methyl-4-oxo-3,4-dihydroimidazo[5,1-d][1,2,3,5]tetrazine-8-carboxylate], for which the melting point was 170 °C. Also, the “solubility in cell culture medium” value in data set [1] is on record as “insoluble”.
Consider `Cn1nnc2c(C(=O)NCCc3ccccc3)ncn2c1=O` [Analogue 4b, 3-Methyl-4-oxo-N-phenethyl-3,4-dihydroimidazo[5,1-d] [1,2,3,5]tetrazine-8-carboxamide], for which the melting point came to 158 °C. Besides, the IC50 in the data set with U87-MG cells was 548 ± 48 µM.
Turning to `Cn1nnc2c(C(=O)Nc3ccc(C#N)cc3)ncn2c1=O` [Analogue 4f, N-(4-Cyanophenyl)-3-methyl-4-oxo-3,4-dihydroimidazo[5,1-d][1,2,3,5]tetrazine-8-carboxamide], the melting point is 234 °C. In data set [1], the “solubility in cell culture medium” value is recorded as “insoluble”.
Consider `CN(C)CCCOC(=O)c1ncn2c(=O)n(C)nnc12` [Analogue 3g, 3-(Dimethylamino)propyl 3-methyl-4-oxo-3,4-dihydroimidazo[5,1-d][1,2,3,5]tetrazine-8-carboxylate], for which the melting point was determined as 204 °C. In the data set with U87-MG cells, the IC50 stood at 856 ± 20 µM.
The corresponding values for `Cn1nnc2c(C(=O)OCCc3ccccc3)ncn2c1=O` [Analogue 3c, Phenethyl 3-methyl-4-oxo-3,4-dihydroimidazo[5,1-d][1,2,3,5]tetrazine-8-carboxylate] are 124 °C and 615 ± 96 µM.
For `CCOC(=O)c1ncn2c(=O)n(C)nnc12` [Analogue 3a, Ethyl 3-methyl-4-oxo-3,4-dihydroimidazo[5,1-d][1,2,3,5]tetrazine-8-carboxylate] the same measures were 130 °C and 700 ± 109 µM.
The corresponding values for `COc1ccccc1OC(=O)c1ncn2c(=O)n(C)nnc12` [Analogue 3m, 2-Methoxyphenyl 3-methyl-4-oxo-3,4-dihydroimidazo[5,1-d][1,2,3,5]tetrazine-8-carboxylate] are 165 °C and 576 ± 91 µM.

As usually defined, the melting point is the temperature of the solid-liquid transition. Usually IC50 stands for the concentration that inhibits the measured activity by half.
